Experimental data reported in ChEMBL document CHEMBL1275437, “Prevalence of serotype 19A Streptococcus pneumoniae among isolates from U.S. children in 2005-2006 and activity of faropenem” (2008).
≈ marks a conversion by molar mass, not a printed value.

How the values were obtained:
Assay type in all cases: functional
Streptococcus pneumoniae [1] = assay: Antibacterial activity against Streptococcus pneumoniae serotype 23A assessed as percent resistant isolates by broth microdilution method
Streptococcus pneumoniae [2] = assay: Antibacterial activity against Streptococcus pneumoniae serotype 15A assessed as percent resistant isolates by broth microdilution method
Streptococcus pneumoniae [3] = assay: Antibacterial activity against Streptococcus pneumoniae serotype 35B by broth microdilution method
Streptococcus pneumoniae [4] = assay: Antibacterial activity against Streptococcus pneumoniae serotype 6A/C by broth microdilution method
Streptococcus pneumoniae [5] = assay: Antibacterial activity against Streptococcus pneumoniae serotype 3 assessed as percent susceptible isolates by broth microdilution method
Streptococcus pneumoniae [6] = assay: Antibacterial activity against Streptococcus pneumoniae serotype 22 assessed as percent susceptible isolates by broth microdilution method
Streptococcus pneumoniae [7] = assay: Antibacterial activity against Streptococcus pneumoniae serotype 6A/C assessed as percent susceptible isolates by broth microdilution method
Streptococcus pneumoniae [8] = assay: Antibacterial activity against Streptococcus pneumoniae serotype 22 assessed as percent resistant isolates by broth microdilution method
Streptococcus pneumoniae [9] = assay: Antibacterial activity against Streptococcus pneumoniae serotype 19F by broth microdilution method
Streptococcus pneumoniae [10] = assay: Antibacterial activity against Streptococcus pneumoniae serotype 33 assessed as percent susceptible isolates by broth microdilution method
Streptococcus pneumoniae [11] = assay: Antibacterial activity against Streptococcus pneumoniae serotype 19A assessed as percent susceptible isolates by broth microdilution method
Streptococcus pneumoniae [12] = assay: Antibacterial activity against Streptococcus pneumoniae serotype 19A by broth microdilution method
Streptococcus pneumoniae [13] = assay: Antibacterial activity against Streptococcus pneumoniae serotype 19A assessed as percent resistant isolates by broth microdilution method
Streptococcus pneumoniae [14] = assay: Antibacterial activity against Streptococcus pneumoniae serotype 22 by broth microdilution method
Streptococcus pneumoniae [15] = assay: Antibacterial activity against Streptococcus pneumoniae serotype 23A assessed as percent susceptible isolates by broth microdilution method
Streptococcus pneumoniae [16] = assay: Antibacterial activity against Streptococcus pneumoniae serotype 3 by broth microdilution method
Streptococcus pneumoniae [17] = assay: Antibacterial activity against Streptococcus pneumoniae serotype 35B assessed as percent susceptible isolates by broth microdilution method
Streptococcus pneumoniae [18] = assay: Antibacterial activity against Streptococcus pneumoniae serotype 15A by broth microdilution method
Streptococcus pneumoniae [19] = assay: Antibacterial activity against Streptococcus pneumoniae serotype 35B assessed as percent resistant isolates by broth microdilution method
Streptococcus pneumoniae [20] = assay: Antibacterial activity against Streptococcus pneumoniae serotype 33 assessed as percent resistant isolates by broth microdilution method
Streptococcus pneumoniae [21] = assay: Antibacterial activity against Streptococcus pneumoniae serotype 6A/C assessed as percent resistant isolates by broth microdilution method
Streptococcus pneumoniae [22] = assay: Antibacterial activity against Streptococcus pneumoniae serotype 3 assessed as percent resistant isolates by broth microdilution method
Streptococcus pneumoniae [23] = assay: Antibacterial activity against Streptococcus pneumoniae serotype 15A assessed as percent susceptible isolates by broth microdilution method
Streptococcus pneumoniae [24] = assay: Antibacterial activity against Streptococcus pneumoniae serotype 19F assessed as percent resistant isolates by broth microdilution method
Streptococcus pneumoniae [25] = assay: Antibacterial activity against Streptococcus pneumoniae serotype 19F assessed as percent susceptible isolates by broth microdilution method
Streptococcus pneumoniae [26] = assay: Antibacterial activity against Streptococcus pneumoniae serotype 23A by broth microdilution method
Streptococcus pneumoniae [27] = assay: Antibacterial activity against Streptococcus pneumoniae serotype 33 by broth microdilution method
[28] = Streptococcus pneumoniae, serotype 15A
[29] = Streptococcus pneumoniae, serotype 19A
[30] = Streptococcus pneumoniae, serotype 35B
[31] = Streptococcus pneumoniae, serotype 6A/C
[32] = Streptococcus pneumoniae, serotype 19F

SMILES	% resistant isolates (Streptococcus pneumoniae [1])	MIC90 (Streptococcus pneumoniae [3])	MIC90 (Streptococcus pneumoniae [4])	% susceptible isolates (Streptococcus pneumoniae [5])	% susceptible isolates (Streptococcus pneumoniae [6])	percent susceptible isolates (Streptococcus pneumoniae [7])	% resistant isolates (Streptococcus pneumoniae [8])	MIC90 (Streptococcus pneumoniae [9])	% susceptible isolates (Streptococcus pneumoniae [10])	percent susceptible isolates (Streptococcus pneumoniae [11])	MIC90 (Streptococcus pneumoniae [12])	MIC90 (Streptococcus pneumoniae [14])	percent susceptible isolates (Streptococcus pneumoniae [15])	MIC90 (Streptococcus pneumoniae [16])	MIC90 (Streptococcus pneumoniae [18])	% resistant isolates (Streptococcus pneumoniae [20])	percent susceptible isolates (Streptococcus pneumoniae [23])	percent susceptible isolates (Streptococcus pneumoniae [25])	MIC90 (Streptococcus pneumoniae [26])	% resistant isolates (Streptococcus pneumoniae [22])	further results
CC[C@H]1OC(=O)[C@H](C)[C@@H](O[C@H]2C[C@@](C)(OC)[C@@H](O)[C@H](C)O2)[C@H](C)[C@@H](O[C@@H]2O[C@H](C)C[C@H](N(C)C)[C@H]2O)[C@](C)(O)C[C@@H](C)CN(C)[C@H](C)[C@@H](O)[C@]1(C)O [AZITHROMYCIN]	0%	16 mg/L (≈ 21.4 µM)	8 mg/L (≈ 10.7 µM)	93%	100%	31%	0%	> 16 mg/L	42%	36%	> 16 mg/L	≤ 0.12 mg/L	79%	0.5 mg/L (≈ 0.668 µM)	> 16 mg/L	0%	7%	29%	> 16 mg/L		% resistant isolates (Streptococcus pneumoniae [2]; [28]): 93%; % resistant isolates (Streptococcus pneumoniae [13]; [29]): 64%; % susceptible isolates (Streptococcus pneumoniae [17]; [30]): 73%; % resistant isolates (Streptococcus pneumoniae [19]; [30]): 27%; % resistant isolates (Streptococcus pneumoniae [21]; [31]): 69%; % resistant isolates (Streptococcus pneumoniae [22]; Streptococcus pneumoniae, serotype 3): 4%; % resistant isolates (Streptococcus pneumoniae [24]; [32]): 71%; MIC90 (Streptococcus pneumoniae [27]): 16 mg/L (≈ 21.4 µM)
C=CC1=C(C(=O)O)N2C(=O)[C@@H](NC(=O)/C(=N\O)c3csc(N)n3)[C@H]2SC1 [CEFDINIR]	0%	4 mg/L (≈ 10.1 µM)	2 mg/L (≈ 5.06 µM)	100%	100%	59%	0%	> 8 mg/L	100%	46%	> 8 mg/L	0.12 mg/L (≈ 0.303 µM)	93%	0.12 mg/L (≈ 0.303 µM)	1 mg/L (≈ 2.53 µM)	0%	72%	33%	0.5 mg/L (≈ 1.26 µM)	0%	% resistant isolates (Streptococcus pneumoniae [2]; [28]): 7%; % resistant isolates (Streptococcus pneumoniae [13]; [29]): 53%; % susceptible isolates (Streptococcus pneumoniae [17]): 0%; % resistant isolates (Streptococcus pneumoniae [19]; [30]): 100%; % resistant isolates (Streptococcus pneumoniae [21]; [31]): 15%; % resistant isolates (Streptococcus pneumoniae [24]; [32]): 67%; MIC90 (Streptococcus pneumoniae [27]): 0.12 mg/L (≈ 0.303 µM)
CO/N=C(\C(=O)N[C@@H]1C(=O)N2C(C(=O)OC(C)OC(C)=O)=C(COC(N)=O)CS[C@H]12)c1ccco1 (stereo not given in full) [CEFUROXIME AXETIL]	0%	4 mg/L (≈ 7.84 µM)	4 mg/L (≈ 7.84 µM)	100%	100%	64%	0%	32 mg/L (≈ 62.7 µM)	100%	46%	16 mg/L (≈ 31.3 µM)	≤ 0.5 mg/L	93%	≤ 0.5 mg/L	4 mg/L (≈ 7.84 µM)	0%	72%	33%	1 mg/L (≈ 1.96 µM)	0%	% resistant isolates (Streptococcus pneumoniae [2]; [28]): 21%; % resistant isolates (Streptococcus pneumoniae [13]; [29]): 52%; % susceptible isolates (Streptococcus pneumoniae [17]): 0%; % resistant isolates (Streptococcus pneumoniae [19]; [30]): 100%; % resistant isolates (Streptococcus pneumoniae [21]; [31]): 15%; % resistant isolates (Streptococcus pneumoniae [24]; [32]): 67%; MIC90 (Streptococcus pneumoniae [27]): ≤ 0.5 mg/L
C[C@H]1COc2c(N3CCN(C)CC3)c(F)cc3c(=O)c(C(=O)O)cn1c23.C[C@H]1COc2c(N3CCN(C)CC3)c(F)cc3c(=O)c(C(=O)O)cn1c23.O [LEVOFLOXACIN]	0%	1 mg/L	1 mg/L	97%	100%	100%	0%	1 mg/L	1%	100%	1 mg/L	1 mg/L	100%	2 mg/L	1 mg/L	0%	100%	100%	1 mg/L	0%	% resistant isolates (Streptococcus pneumoniae [2]): 0%; % resistant isolates (Streptococcus pneumoniae [13]): 0%; % susceptible isolates (Streptococcus pneumoniae [17]; [30]): 100%; % resistant isolates (Streptococcus pneumoniae [19]): 0%; % resistant isolates (Streptococcus pneumoniae [21]): 0%; % resistant isolates (Streptococcus pneumoniae [24]): 0%
CC1(C)S[C@@H]2[C@H](NC(=O)Cc3ccccc3)C(=O)N2[C@H]1C(=O)O [PENICILLIN G]	0%	2 mg/L (≈ 5.98 µM)	1 mg/L (≈ 2.99 µM)	100%	100%	23%	0%	> 4 mg/L	92%	13%	4 mg/L (≈ 12 µM)	≤ 0.03 mg/L	57%	≤ 0.03 mg/L	0.5 mg/L (≈ 1.5 µM)	0%	7%	33%	0.5 mg/L (≈ 1.5 µM)	0%	% resistant isolates (Streptococcus pneumoniae [2]): 0%; % resistant isolates (Streptococcus pneumoniae [13]; [29]): 50%; % susceptible isolates (Streptococcus pneumoniae [17]): 0%; % resistant isolates (Streptococcus pneumoniae [19]; [30]): 100%; % resistant isolates (Streptococcus pneumoniae [21]; [31]): 8%; % resistant isolates (Streptococcus pneumoniae [24]; [32]): 67%; MIC90 (Streptococcus pneumoniae [27]): ≤ 0.03 mg/L
CC[C@H]1OC(=O)[C@H](C)C(=O)[C@H](C)[C@@H](O[C@@H]2O[C@H](C)C[C@H](N(C)C)[C@H]2O)[C@](C)(OC)C[C@@H](C)C(=O)[C@H](C)[C@H]2N(CCCCn3cnc(-c4cccnc4)c3)C(=O)O[C@]12C [TELITHROMYCIN]	0%	0.5 mg/L (≈ 0.616 µM)	0.25 mg/L (≈ 0.308 µM)	100%	100%	100%	0%	1 mg/L (≈ 1.23 µM)	0.25%	99%	1 mg/L (≈ 1.23 µM)	≤ 0.12 mg/L	100%	≤ 0.12 mg/L	≤ 0.12 mg/L	0%	100%	100%	≤ 0.12 mg/L	0%	% resistant isolates (Streptococcus pneumoniae [2]): 0%; % resistant isolates (Streptococcus pneumoniae [13]): 0%; % susceptible isolates (Streptococcus pneumoniae [17]; [30]): 100%; % resistant isolates (Streptococcus pneumoniae [19]): 0%; % resistant isolates (Streptococcus pneumoniae [21]): 0%; % resistant isolates (Streptococcus pneumoniae [24]): 0%
